Results from patent publication US20230048678A1, “ICAN DERIVATIVES FOR ANTIFUNGAL USE” (DEBRECENI EGYETEM, priority 2019, published 2023).
Entries after “also recorded” stand apart in the source; their conditions may differ.

Assays:
C. albicans isolates = experiment: CLSI M27-A3 broth microdilution on Candida isolates (Table 2); assay type: cell-based
Experimental: (§1) The tested C. albicans, C. tropicalis, C. parapsilosis, C. glabrata and C. krusei ATCC strains and clinical isolates are listed in Table 2. MICs were determined according to the CLSI M27-A3 [22]. Antifungal agents were dissolved in 100% DMSO and diluted further in RPMI-1640 (with L-glutamine but without bicarbonate) (Sigma, Budapest, Hungary), and buffered to pH 7.0 with 0.165 M morpholinopropanesulfonic acid (MOPS; Sigma, Budapest, Hungary). The final concentration ranges used for AMB and ICAN derivatives were 0.125 to 4 μg/ml and 0.04 to 20 μg/ml, respectively. Yeast cell suspensions were prepared in RPMI 1640 medium and were adjusted to give a final inoculum concentration of 0.5×10^3 to 2.5×10^3 cells/ml. MICs were read visually after 48-h incubation at 35° C. using the partial (50%) inhibition (for ICAN derivatives) (PI) and total inhibition (for AMB and ICAN derivatives) (TI) criteria. MICs were determined at least twice. For amphotericin B isolates with MIC values of ≤2 mg/L were considered wild-types. [Pfaller M A, 2012]

C. krusei isolates = experiment: as above; assay type: cell-based
Experimental: as §1

C. parapsilosis isolates = experiment: as above; assay type: cell-based
Experimental: as §1

C. glabrata isolates = experiment: as above; assay type: cell-based
Experimental: as §1

C. tropicalis isolates = experiment: as above; assay type: cell-based
Experimental: as §1

C. albicans isolate 3666 = experiment: Murine model, kidney fungal burden; assay type: in vivo, BALB/c mice; settings: immunosuppressed mice, 10^4 cfu/mouse iv
Experimental: During an independent in vivo experiment mice were infected intravenously with C. albicans isolate 3666. The infected mice were euthanized 2 or 6 days after infection (n=5 and 6 mice/time point, respectively), as disclosed herein, to determine the fungal burdens in the kidneys. Kidney burden was analyzed using a Kruskal-Wallis test with Dunn's posttest for multiple comparisons [Foldi R 2012, Kovacs R 2014]. Results of fungal burden experiments are shown on FIGS. 3b and c. […] It is well seen in […], that on day 6. the fungal burden increased by an order of magnitude (from −10^5 to −10^6) in the case of the untreated mice, while in the case of DIMICAN it remained the same as it was on day 2. The same is valid for AMB.
We used 10-12 week-old female BALB/c mice for all experiments. Mice were immunosuppressed using 150 mg/kg intraperitoneal (ip) cyclophosphamide dose (4 days prior to infection) and 100 mg/kg ip cyclophosphamide dose (1 day prior to infection; 2 and 5 days after infection) [Spellberg B, 2005]. All mice received ceftazidime (5 mg/day subcutaneously) from days 0 to 6 after infection. Mice were given food and water ad libitum and were monitored daily. The animals were maintained in accordance with the Guidelines for the Care and Use of Laboratory Animals, and the experiments were approved by the Animal Care Committee of the University of Debrecen, Debrecen, Hungary (permission no. 12/2014).
Mice were infected via the lateral tail vein with C. albicans 3666 bloodstream isolate. In the lethality (10 mice/group) and fungal tissue burden experiments (6 mice/group) the infectious doses were 3×10^4 and 10^4 cfu/mouse, respectively. These doses led to 100% and 0% mortality, respectively by day 6 after infection among untreated mice. Inoculum density was confirmed by plating serial dilutions onto Sabouraud dextrose agar (SDA) plates.
AMB (Fungizone, commercial preparation) and DIMICAN treatment in a 0.5-ml bolus was started 1 h after infection. The doses were 1 mg AMB and 5 mg DIMICAN (in olive oil/water (o/w) emulsion) per kg body weight. All antifungals were administered intraperitoneally once daily for 5 consecutive days.
Infected mice were euthanized 2 or 6 days after infection (n=6 mice/time point) to determine the fungal burden in the kidney. […] Aliquots of 0.1 ml of the undiluted and diluted homogenates were plated onto SDA, and the colony count was determined after 48 h. Colony-forming units (CFUs) were determined after 48 h of incubation at 37° C. and results were expressed as cfus/g tissue [Spellberg B, 2005]. […]
Survival effects were analyzed by the Kaplan—Meier log-rank test. Kidney burden was analysed using a Kruskal—Wallis test with Dunn's posttest for multiple comparisons [Foldi R 2012, Kovacs R 2014].

[1] = tested on: clinical Candida isolates (C. albicans, C. krusei, C. tropicalis, C. glabrata, C. parapsilosis); experiment: Broth microdilution, MIC summarised over all clinical Candida isolates; assay type: cell-based; settings: range or bound over all tested isolates of five Candida species; read-out: total minimum inhibitory concentration (MICTI)
Experimental: The present inventors have discovered that 1-amino-5-isocyanonaphthalene (ICAN) and its derivatives exert excellent antifungal activity against a broad range of Candida species. […] Nevertheless, proper formulation and/or substitution with solubility enhancer groups on the naphthalene core may increase its effectiveness. Based on MIC values (MICPI=0.04−0.3 μg/ml MICTI=0.6 μg/ml) and its low cytotoxicity 1,1-N-dimethylamino-5-isocyanonaphthalene (DIMICAN) was selected to be tested on clinical Candida isolates. […] Amphotericin B (AMB) is an antifungal agent which is effective against a number of medically important fungi. The in vivo applicability of DIMICAN was tested on immunosuppressed mice and control experiments were also conducted with amphotericin B. In the model of acute invasive candidiasis, neutropenic mice were infected intravenously with C. albicans isolate 3666 (3×10^4 cfu/mouse) to establish an acute infection, and all untreated control animals died within 6 days. […]
The tested C. albicans, C. tropicalis, C. parapsilosis, C. glabrata and C. krusei ATCC strains and clinical isolates are listed in Table 2. MICs were determined according to the CLSI M27-A3 [22]. […] MICs were read visually after 48-h incubation at 35° C. using the partial (50%) inhibition (for ICAN derivatives) (PI) and total inhibition (for AMB and ICAN derivatives) (TI) criteria. MICs were determined at least twice. […]

`C[C@@H]1[C@H](O)[C@@H](C)/C=C/C=C/C=C/C=C/C=C/C=C/C=C/[C@H](O[C@@H]2O[C@H](C)[C@@H](O)[C@H](N)[C@@H]2O)C[C@@H]2O[C@](O)(C[C@@H](O)C[C@@H](O)[C@H](O)CC[C@@H](O)C[C@@H](O)CC(=O)O[C@H]1C)C[C@H](O)[C@H]2C(=O)O` [AMB, Amphotericin B, reference compound] gave an MICTI (C. albicans isolates; isolate 456) of 0.5 µg/mL, an MICTI (C. albicans isolates; isolate 665) of 1 µg/mL and an MICTI (C. albicans isolates; isolate 685) of 0.25 µg/mL. For the same compound, the MICTI (C. albicans isolates; isolate 720) was 0.5 µg/mL, the MICTI (C. albicans isolates; isolate 963) was 0.5 µg/mL and the MICTI (C. albicans isolates; isolate 1544) was 0.25 µg/mL. The MICTI (C. albicans isolates; isolate 3666) was 0.5 µg/mL, the MICTI (C. albicans isolates; isolate 8658) was 1 µg/mL and the MICTI (C. albicans isolates; isolate ATCC 10231) was 0.25 µg/mL. It also gave an MICTI (C. krusei isolates; isolate 749) of 1 µg/mL, an MICTI (C. krusei isolates; isolate 1853) of 1 µg/mL and an MICTI (C. krusei isolates; isolate 4364) of 1 µg/mL. It also gave an MICTI (C. krusei isolates; isolate 5029) of 1 µg/mL, an MICTI (C. krusei isolates; isolate 5072) of 1 µg/mL and an MICTI (C. krusei isolates; isolate 25504) of 0.5 µg/mL. For the same compound, the MICTI (C. krusei isolates; isolate 34987) was 1 µg/mL, the MICTI (C. krusei isolates; isolate ATCC 6258) was 1 µg/mL and the MICTI (C. parapsilosis isolates; isolate 4133) was 0.25 µg/mL. The MICTI (C. parapsilosis isolates; isolate 9613) was 0.25 µg/mL, the MICTI (C. parapsilosis isolates; isolate 10252) was 0.5 µg/mL and the MICTI (C. parapsilosis isolates; isolate 18154) was 0.5 µg/mL. It also gave an MICTI (C. parapsilosis isolates; isolate 27001) of 0.25 µg/mL, an MICTI (C. parapsilosis isolates; isolate ATCC 22019) of 0.5 µg/mL and an MICTI (C. glabrata isolates; isolate 14408) of 0.5 µg/mL. It also gave an MICTI (C. glabrata isolates; isolate 14559) of 0.5 µg/mL, an MICTI (C. glabrata isolates; isolate 22394) of 0.5 µg/mL and an MICTI (C. glabrata isolates; isolate 23429) of 1 µg/mL. For the same compound, the MICTI (C. glabrata isolates; isolate 23481) was 1 µg/mL, the MICTI (C. glabrata isolates; isolate 27643) was 0.5 µg/mL and the MICTI (C. glabrata isolates; isolate 28557) was 0.5 µg/mL. For the same compound, the MICTI (C. glabrata isolates; isolate ATCC 90030) was 0.5 µg/mL, the MICTI (C. tropicalis isolates; isolate 579) was 0.5 µg/mL and the MICTI (C. tropicalis isolates; isolate 622) was 1 µg/mL. It also gave an MICTI (C. tropicalis isolates; isolate 1776) of 1 µg/mL, an MICTI (C. tropicalis isolates; isolate 2467) of 0.5 µg/mL and an MICTI (C. tropicalis isolates; isolate 3014) of 0.5 µg/mL. The MICTI (C. tropicalis isolates; isolate 5115) was 0.5 µg/mL, the MICTI (C. tropicalis isolates; isolate 5806) was 0.25 µg/mL and the MICTI (C. tropicalis isolates; isolate ATCC 750) was 0.5 µg/mL. For the same compound, the “effect on kidney fungal burden, six days after infection” value (C. albicans isolate 3666; 5 mg/kg DIMICAN or 1 mg/kg AMB ip once daily for 5 days, p<0.05 (AMB), p<0.001 (DIMICAN) vs control) was “efficient; also recorded: significantly lower fungal burden”, the “effect on kidney fungal burden, two days after infection” value (C. albicans isolate 3666; 5 mg/kg DIMICAN or 1 mg/kg AMB ip once daily, P>0.05 vs control) was “no effect on fungal load” and the MIC [1] was ≤ 2 µg/mL.
